Paper PMC7366380, “Discovery of a Potent and Selective Covalent Inhibitor and Activity-Based Probe for the Deubiquitylating Enzyme UCHL1, with Antifibrotic Activity” (Journal of the American Chemical Society, 2020)

Target: T1, UCHL1 (Homo sapiens, UniProt P09936)
T1 sequence (P09936 1-223): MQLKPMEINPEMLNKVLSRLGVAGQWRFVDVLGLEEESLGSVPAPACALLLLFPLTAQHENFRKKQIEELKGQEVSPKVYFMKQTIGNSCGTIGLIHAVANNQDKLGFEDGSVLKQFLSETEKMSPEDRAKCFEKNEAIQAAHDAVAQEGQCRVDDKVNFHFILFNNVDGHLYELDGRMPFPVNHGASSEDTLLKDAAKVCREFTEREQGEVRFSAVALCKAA
Conditions: compared with 1

fold less active than 1 (UCHL1 FP assay): > 1000 fold
SMILES: N#CN1CCC[C@@H]1C(=O)N1CCc2c(-c3c[nH]c4ncccc34)cccc21 [Compound 3]
